{
  "source": "PubChem BioAssay AID1963424",
  "about": "(Molecular Pharmacology Branch, DTP, NCI, 2024);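 also: spheroids exposed to compound for 7 days after 3 days of growth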;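 as to viability, T/C: 100% = DMSO vehicle control wells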",
  "system": "327498-153-R-J2-PDC complex spheroid growth, % test/control",
  "assay": "Anticancer human tumor 327498-153-R-J2-PDC patient-derived uterine carcinosarcoma cell line growth inhibition [Asc]",
  "details": "for IC50: curve of first compound; for viability, T/C: stronger effect = lower value",
  "method_in_brief": "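Spheroid model: tumor line + HUVEC + hMSC. Single agents and combinations; top conc. at/near clinical Cmax (10 microM if undetermined), half-log dilutions. DMSO stocks at 800-fold test concentration.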",
  "key": {"[1]": {"details": "second compound 0.01 µM, first compound 0.0316 µM"}, "[2]": {"details": "second compound 0.01 µM, first compound 0.1 µM"}, "[3]": {"details": "second compound 0.0316 µM, first compound 0.0316 µM"}, "[4]": {"details": "second compound 0.0316 µM, first compound 0.1 µM"}, "[5]": {"details": "second compound 0.1 µM, first compound 0.0316 µM"}, "[6]": {"details": "second compound 0.1 µM, first compound 0.1 µM"}, "[7]": {"details": "second compound 0.316 µM, first compound 0.0316 µM"}, "[8]": {"details": "second compound 0.316 µM, first compound 0.1 µM"}, "[9]": {"details": "second compound 1 µM, first compound 0.0316 µM"}, "[10]": {"details": "second compound 1 µM, first compound 0.1 µM"}},
  "data": [
    {"smiles": "Cn1ncnc1[C@H]1c2n[nH]c(=O)c3cc(F)cc(c23)N[C@@H]1c1ccc(F)cc1", "note": "+ CNC(C)C(=O)NC1CN(S(=O)(=O)c2cccc(S(=O)(=O)N3CCC4CCC(C(=O)NC(c5ccccc5)c5ccccc5)N4C(=O)C(NC(=O)C(C)NC)C3)c2)CCC2CCC(C(=O)NC(c3ccccc3)c3ccccc3)N2C1=O", "values": [
      {"measurement": "IC50", "setting": "second compound 0.01 µM", "value": 16.2, "unit": "nM"},
      {"measurement": "IC50", "setting": "second compound 0.0316 µM", "value": 17, "unit": "nM"},
      {"measurement": "IC50", "setting": "second compound 0.1 µM", "value": 17.7, "unit": "nM"},
      {"measurement": "IC50", "setting": "second compound 0.316 µM", "value": 14.7, "unit": "nM"},
      {"measurement": "IC50", "setting": "second compound 1 µM", "value": 16.6, "unit": "nM"},
      {"measurement": "viability, T/C", "setting": "second compound 0.01 µM, first compound 0.000316 µM", "value": 98.5, "unit": "%"},
      {"measurement": "viability, T/C", "setting": "second compound 0.01 µM, first compound 0.001 µM", "value": 109, "unit": "%"},
      {"measurement": "viability, T/C", "setting": "second compound 0.01 µM, first compound 0.00316 µM", "value": 101, "unit": "%"},
      {"measurement": "viability, T/C", "setting": "second compound 0.01 µM, first compound 0.01 µM", "value": 68, "unit": "%"},
      {"measurement": "viability, T/C", "setting": "[1]", "value": 24.8, "unit": "%"},
      {"measurement": "viability, T/C", "setting": "[2]", "value": 8.36, "unit": "%"},
      {"measurement": "viability, T/C", "setting": "second compound 0.0316 µM, first compound 0.000316 µM", "value": 98.9, "unit": "%"},
      {"measurement": "viability, T/C", "setting": "second compound 0.0316 µM, first compound 0.001 µM", "value": 111, "unit": "%"},
      {"measurement": "viability, T/C", "setting": "second compound 0.0316 µM, first compound 0.00316 µM", "value": 98.2, "unit": "%"},
      {"measurement": "viability, T/C", "setting": "second compound 0.0316 µM, first compound 0.01 µM", "value": 73.8, "unit": "%"},
      {"measurement": "viability, T/C", "setting": "[3]", "value": 22.6, "unit": "%"},
      {"measurement": "viability, T/C", "setting": "[4]", "value": 8.68, "unit": "%"},
      {"measurement": "viability, T/C", "setting": "second compound 0.1 µM, first compound 0.000316 µM", "value": 98.2, "unit": "%"},
      {"measurement": "viability, T/C", "setting": "second compound 0.1 µM, first compound 0.001 µM", "value": 106, "unit": "%"},
      {"measurement": "viability, T/C", "setting": "second compound 0.1 µM, first compound 0.00316 µM", "value": 91.2, "unit": "%"},
      {"measurement": "viability, T/C", "setting": "second compound 0.1 µM, first compound 0.01 µM", "value": 73.3, "unit": "%"},
      {"measurement": "viability, T/C", "setting": "[5]", "value": 27.1, "unit": "%"},
      {"measurement": "viability, T/C", "setting": "[6]", "value": 7.43, "unit": "%"},
      {"measurement": "viability, T/C", "setting": "second compound 0.316 µM, first compound 0.000316 µM", "value": 100, "unit": "%"},
      {"measurement": "viability, T/C", "setting": "second compound 0.316 µM, first compound 0.001 µM", "value": 112, "unit": "%"},
      {"measurement": "viability, T/C", "setting": "second compound 0.316 µM, first compound 0.00316 µM", "value": 111, "unit": "%"},
      {"measurement": "viability, T/C", "setting": "second compound 0.316 µM, first compound 0.01 µM", "value": 64.7, "unit": "%"},
      {"measurement": "viability, T/C", "setting": "[7]", "value": 21.5, "unit": "%"},
      {"measurement": "viability, T/C", "setting": "[8]", "value": 8, "unit": "%"},
      {"measurement": "viability, T/C", "setting": "second compound 1 µM, first compound 0.000316 µM", "value": 99.3, "unit": "%"},
      {"measurement": "viability, T/C", "setting": "second compound 1 µM, first compound 0.001 µM", "value": 105, "unit": "%"},
      {"measurement": "viability, T/C", "setting": "second compound 1 µM, first compound 0.00316 µM", "value": 107, "unit": "%"},
      {"measurement": "viability, T/C", "setting": "second compound 1 µM, first compound 0.01 µM", "value": 68.9, "unit": "%"},
      {"measurement": "viability, T/C", "setting": "[9]", "value": 25.3, "unit": "%"},
      {"measurement": "viability, T/C", "setting": "[10]", "value": 8.08, "unit": "%"}
    ]},
    {"smiles": "O=C(c1cc(Cc2n[nH]c(=O)c3ccccc23)ccc1F)N1CCN(C(=O)C2CC2)CC1", "note": "+ CNC(C)C(=O)NC1CN(S(=O)(=O)c2cccc(S(=O)(=O)N3CCC4CCC(C(=O)NC(c5ccccc5)c5ccccc5)N4C(=O)C(NC(=O)C(C)NC)C3)c2)CCC2CCC(C(=O)NC(c3ccccc3)c3ccccc3)N2C1=O", "values": [
      {"measurement": "IC50", "setting": "second compound 0.01 µM", "value": 4520, "unit": "nM"},
      {"measurement": "IC50", "setting": "second compound 0.0316 µM", "value": 3830, "unit": "nM"},
      {"measurement": "IC50", "setting": "second compound 0.1 µM", "value": 3780, "unit": "nM"},
      {"measurement": "IC50", "setting": "second compound 0.316 µM", "value": 4070, "unit": "nM"},
      {"measurement": "IC50", "setting": "second compound 1 µM", "value": 3710, "unit": "nM"},
      {"measurement": "viability, T/C", "setting": "[1]", "value": 98.8, "unit": "%"},
      {"measurement": "viability, T/C", "setting": "[2]", "value": 105, "unit": "%"},
      {"measurement": "viability, T/C", "setting": "second compound 0.01 µM, first compound 0.316 µM", "value": 102, "unit": "%"},
      {"measurement": "viability, T/C", "setting": "second compound 0.01 µM, first compound 1 µM", "value": 99.2, "unit": "%"},
      {"measurement": "viability, T/C", "setting": "second compound 0.01 µM, first compound 3.16 µM", "value": 67.9, "unit": "%"},
      {"measurement": "viability, T/C", "setting": "second compound 0.01 µM, first compound 10 µM", "value": 11.3, "unit": "%"},
      {"measurement": "viability, T/C", "setting": "[3]", "value": 102, "unit": "%"},
      {"measurement": "viability, T/C", "setting": "[4]", "value": 100, "unit": "%"},
      {"measurement": "viability, T/C", "setting": "second compound 0.0316 µM, first compound 0.316 µM", "value": 108, "unit": "%"},
      {"measurement": "viability, T/C", "setting": "second compound 0.0316 µM, first compound 1 µM", "value": 88.5, "unit": "%"},
      {"measurement": "viability, T/C", "setting": "second compound 0.0316 µM, first compound 3.16 µM", "value": 58.7, "unit": "%"},
      {"measurement": "viability, T/C", "setting": "second compound 0.0316 µM, first compound 10 µM", "value": 9.57, "unit": "%"},
      {"measurement": "viability, T/C", "setting": "[5]", "value": 97.5, "unit": "%"},
      {"measurement": "viability, T/C", "setting": "[6]", "value": 99.9, "unit": "%"},
      {"measurement": "viability, T/C", "setting": "second compound 0.1 µM, first compound 0.316 µM", "value": 102, "unit": "%"},
      {"measurement": "viability, T/C", "setting": "second compound 0.1 µM, first compound 1 µM", "value": 89.8, "unit": "%"},
      {"measurement": "viability, T/C", "setting": "second compound 0.1 µM, first compound 3.16 µM", "value": 57.6, "unit": "%"},
      {"measurement": "viability, T/C", "setting": "second compound 0.1 µM, first compound 10 µM", "value": 9.51, "unit": "%"},
      {"measurement": "viability, T/C", "setting": "[7]", "value": 104, "unit": "%"},
      {"measurement": "viability, T/C", "setting": "[8]", "value": 107, "unit": "%"},
      {"measurement": "viability, T/C", "setting": "second compound 0.316 µM, first compound 0.316 µM", "value": 94.5, "unit": "%"},
      {"measurement": "viability, T/C", "setting": "second compound 0.316 µM, first compound 1 µM", "value": 91.4, "unit": "%"},
      {"measurement": "viability, T/C", "setting": "second compound 0.316 µM, first compound 3.16 µM", "value": 60.3, "unit": "%"},
      {"measurement": "viability, T/C", "setting": "second compound 0.316 µM, first compound 10 µM", "value": 11.1, "unit": "%"},
      {"measurement": "viability, T/C", "setting": "[9]", "value": 96.8, "unit": "%"},
      {"measurement": "viability, T/C", "setting": "[10]", "value": 100, "unit": "%"},
      {"measurement": "viability, T/C", "setting": "second compound 1 µM, first compound 0.316 µM", "value": 94.5, "unit": "%"},
      {"measurement": "viability, T/C", "setting": "second compound 1 µM, first compound 1 µM", "value": 90.3, "unit": "%"},
      {"measurement": "viability, T/C", "setting": "second compound 1 µM, first compound 3.16 µM", "value": 56.4, "unit": "%"},
      {"measurement": "viability, T/C", "setting": "second compound 1 µM, first compound 10 µM", "value": 9.85, "unit": "%"}
    ]}
  ]
}
